The values that follow come from patent publication US20240335439A1, “USE OF AND METHOD FOR TELAPREVIR IN PREPARATION OF DRUG FOR TREATING AN ISCHEMIA/REPERFUSION INJURY AND CYTOPROTECTIVE DRUG” (THE THIRD XIANGYA HOSPITAL OF CENTRAL SOUTH UNIVERSITY, priority 2021, published 2024).

In experiment [1] the test system is ischemic stroke rat models. The experiment is described as follows: Ischemic stroke rat model (MCAO 2 h, reperfusion 24 h). The experiment is classed as in vivo, SD rats. The settings on record: telaprevir 60 mg/kg after 2 hours of ischemia and 1 hour of reperfusion. On the procedure:
Experimental animals: Healthy male SD rats weighing 250-300 g. The experimental animals were raised for one week in an environment with a temperature of 25° C., a relative humidity of 60%, free drinking water, and timed and quantified feeding, and then administered according to the requirements of each experimental group.
Method for building an ischemic stroke rat model: A cerebral ischemia/reperfusion rat model was prepared by a middle cerebral artery occlusion (MCAO) method. […]
Rat brain TTC staining and infarct volume measurement: After the rat was anesthetized, the brain was quickly taken out, the olfactory bulb and posterior brain were removed, and five coronal brain slices having a thickness of about 2.0 mm were cut from the antiunion, immediately placed in a 1% TTC solution, incubated at 37° C. in dark for 30 minutes, and then soaked and immobilized in a 10% paraformaldehyde solution. […] The infarct area of each brain slice was measured by ImageJ, and an infarct volume of the whole brain was calculated according to a formula: infarct volume=[(sum of front infarct areas of all slices+sum of back infarct areas of all slices)/2]×the thickness of each slice, that is, a sum of infarct volumes of all brain slices. […]
Neurological function scores of rats were detected and cerebral infarct volumes were measured.

Experiment [2] relates to myocardial ischemia/reperfusion injury mouse models. The experiment is described as follows: Myocardial ischemia/reperfusion injury mouse model (LAD ligation 1 h, reperfusion 24 h). The experiment is classed as in vivo, C57BL/6J mice. The settings on record: telaprevir 60 mg/kg after 30 minutes of ischemia, 24 h reperfusion. On the procedure: Experimental animals: 7-week-old male C57BL/6J mice. The experimental animals were raised for one week in an environment with a temperature of 25° C., a relative humidity of 60%, free drinking water, and timed and quantified feeding, and then administered according to the requirements of each experimental group.
Method for building a myocardial ischemia/reperfusion mouse model: After an 8-week-old male C57BL/6J mouse was anesthetized by intraperitoneal injection with 0.3% pentobarbital sodium (20 mL/kg), a trachea cannula was inserted from the mouth and secured with a pressure-sensitive adhesive. […] The chest was opened, left anterior descending (LAD) branches were ligated with 8-0 sutures, myocardial infarction can be determined when the cardiac apex turned white, and the ligation was maintained for 1 hour. […] After staining, the staining solution was removed, the heart slices were washed with PBS once, immobilized with 4% paraformaldehyde for 24 hours, and then taken out, the staining situation was observed, photos were taken, and an ischemic area and an infarct area were measured by ImageJ software. […]
Blood and myocardial tissues were collected and relevant indicators were measured: myocardial infarct area in mice was measured and serum creatine kinase activity (CK activity) was detected. […]

Each structure is given as a SMILES string.

With `CCC[C@H](NC(=O)[C@@H]1[C@H]2CCC[C@H]2CN1C(=O)[C@@H](NC(=O)[C@@H](NC(=O)c1cnccn1)C1CCCCC1)C(C)(C)C)C(=O)C(=O)NC1CC1` [telaprevir], the “neurological impairment symptoms (Longa neurological function score) of rats” value in experiment [1] (##P<0.01 vs I/R, FIG. 2B) is “significantly improve”. Besides, in experiment [1] (vs I/R, FIG. 2A), the “cerebral infarct volume of rats (TTC staining)” value was “significantly decreased”. The “serum creatine kinase activity” value in experiment [2] (##P<0.01 vs I/R, FIG. 1B) is “significantly reduce”. For the same compound, the “infarct area of myocardial tissues in mice (TTC staining, AOI/AOR)” value in experiment [2] (vs I/R, FIG. 1A) is reported as “significantly reduce”.
